Laboratory results reported in patent US20250235450A1, “COMBINATION THERAPIES COMPRISING APREMILAST AND TYK2 INHIBITORS” (Celgene Corporation, priority 2019, published 2025).
Read-outs that look alike come from different tables or passages of the source.

Tests used:
[1] = system: moderate to severe plaque psoriasis; details: achievable in some patients; just over 4 months of treatment; cited from earlier work
[2] = system: anti-CD3/anti-CD28 (Th0) or anti-CD3/anti-CD28, IL-1β, IL-6 and IL-23 (Th17) stimulated whole blood; test: Ex-vivo TruCulture tube assay: cytokine production in stimulated whole blood; assay type: cell-based, human; details: for inhibition at 1 µM: Homo sapiens
Protocol: Whole blood was received through the Celgene Donor program after informed consent and donor deidentification. All volunteers were healthy and were not on any medications for at least 72 hours prior to the blood draw. Blood was collected in sodium heparin tubes. The assay was started within 2 hours of the blood draw.
An ex-vivo stimulation of healthy donor human whole blood was performed under two different stimulation conditions. Condition Th0 was a stimulation with TruCulture® tubes containing anti-CD3/anti-CD28. Condition Th17 was a stimulation with TruCulture® tubes containing anti-CD3/anti-CD28 plus IL-1β, IL-6 and IL-23. Whole blood was separated into 15 milliliter conical tubes and pre-treated with DMSO, apremilast alone, BMS-986165 alone or BMS-986165 combined with apremilast. Final concentrations were 0.2% DMSO, 1 μM for apremilast alone, 1 μM, 0.1 μM, 0.01 μM and 0.001 μM BMS-986165 alone and in combination with 1 μM apremilast. Blood was mixed well and then incubated in a 37° C./5% CO2 incubator for 1 hour.
The anti-CD3/anti-CD28 (200 ng/ml and 330 ng/ml final concentrations respectively) TruCulture® tubes were thawed on the bench top for 30 minutes and then labeled. Plungers were pressed and then broken off. TruCulture® tubes were placed in a rack standing upright such that the plunger side is pointing down in the rack and the tube-cap is pointing up. While blood was incubating with compound Human recombinant IL-6, IL-1β and IL-23 were added to all Th17 tubes in the following concentrations: 120 ng IL-6, 120 ng IL-1b and 150 ng IL-23. One ml of the pre-treated whole blood was placed in each tube, using sterile pyrogen-free pipette tips. The cap was replaced and the contents of the tube were mixed by inverting 3 times. The tubes were immediately placed in a 37° C. heat block and incubated for 42 hours (tube-cap end). After the 42 hours the tubes were removed from the heat block, tops were unscrewed and 250 μl of the supernatant was removed and transferred into three 96-well polypropylene plates. Samples were immediately frozen at −80° C. The supernatants were then thawed at room temperature and tested neat for cytokine production by Luminex Multi-Plex MagPix technology (Millipore) or IL-22 by ELISA (Abcam). The manufacturer's procedures were followed accordingly.
Data processing for the cytokine analysis was done using Milliplex Analyst (Millipore), and raw data was exported to Excel template for the cytokine analysis. Data from the template was plotted using GraphPad Prism 7.0 (GraphPad Software, Inc., La Jolla, CA) and expressed as pg/ml or % of control. Statistical analysis was also performed using One Way Anova and Dunnett's Post Test.
To evaluate the combinatory effect of apremilast and BMS-986165, data from the two independent treatments were analyzed by comparing the combinatory response against the theoretical additive response of the two agents. The expected additive effect of two agents (A and B) was calculated using the fractional product method: (fu)A,B=(fu)A×(fu)B; where fu=fraction unaffected by treatment.

CCOc1cc([C@@H](CS(C)(=O)=O)N2C(=O)c3cccc(NC(C)=O)c3C2=O)ccc1OC [Apremilast, N-[2-[(1S)-1-(3-ethoxy-4-methoxyphenyl)-2-(methylsulfonyl)ethyl]-2,3-dihydro-1,3-dioxo-1H-isoindol-4-yl]acetamide]
reduction in plaque psoriasis [1]: 75%
inhibition at 1 µM ([2]; Th0, 1 μM apremilast, read-out: inhibition of IL-17F production): 69%
inhibition at 1 µM ([2]; Th0, 1 μM apremilast, read-out: inhibition of TNF-α levels): 90%
inhibition at 1 µM ([2]; Th17, 1 μM apremilast, read-out: inhibition of IL-17F production): 49%
inhibition at 1 µM ([2]; Th17, 1 μM apremilast, read-out: inhibition of TNF-α levels): 94%
CCL20 % of Control ([2]; Th0, 1 μM apremilast): 59.5 % of Control
GM-CSF % of Control ([2]; Th0, 1 μM apremilast): 20.3 % of Control
IFN-γ % of Control ([2]; Th0, 1 μM apremilast): 9.3 % of Control
IL-1β % of Control ([2]; Th0, 1 μM apremilast): 16.4 % of Control
IL-2 % of Control ([2]; Th0, 1 μM apremilast): 17.9 % of Control
IL-4 % of Control ([2]; Th0, 1 μM apremilast): 30.3 % of Control
IL-5 % of Control ([2]; Th0, 1 μM apremilast): 6.2 % of Control
IL-6 % of Control ([2]; Th0, 1 μM apremilast): 52.8 % of Control
IL-10 % of Control ([2]; Th0, 1 μM apremilast): 41.6 % of Control
IL-13 % of Control ([2]; Th0, 1 μM apremilast): 15.3 % of Control
IL-17A % of Control ([2]; Th0, 1 μM apremilast): 71.6 % of Control
IL-17F % of Control ([2]; Th0, 1 μM apremilast): 31.8 % of Control
IL-21 % of Control ([2]; Th0, 1 μM apremilast): 62.9 % of Control
IL-22 % of Control ([2]; Th0, 1 μM apremilast): 14.8 % of Control
IL-23 % of Control ([2]; Th0, 1 μM apremilast): 82.1 % of Control
TNF-α % of Control ([2]; Th0, 1 μM apremilast): 10.7 % of Control
inhibition of IL-17A cytokine expression ([2]; Th0, 1 μM apremilast): 28%
inhibition of IL-22 cytokine expression ([2]; Th0, 1 μM apremilast): 85%
reduction of GM-CSF cytokine expression ([2]; Th0, 1 μM apremilast): 80%
IL-17A levels ([2]; Th0, 1 μM apremilast, control 138 pg/mL): 93 pg/mL
IL-17F levels ([2]; Th0, 1 μM apremilast, control 1085 pg/mL): 368 pg/mL
TNF-α levels ([2]; Th0, 1 μM apremilast, control 1380 pg/mL): 148 pg/mL
effect on GM-CSF, statistical significance ([2]; Th0 and Th17, apremilast): significantly inhibited
CCL20 % of Control ([2]; Th17, 1 μM apremilast): 220.3 % of Control
GM-CSF % of Control ([2]; Th17, 1 μM apremilast): 33.8 % of Control
IFN-γ % of Control ([2]; Th17, 1 μM apremilast): 18.7 % of Control
IL-1β % of Control ([2]; Th17, 1 μM apremilast): 98 % of Control
IL-2 % of Control ([2]; Th17, 1 μM apremilast): 14.4 % of Control
IL-4 % of Control ([2]; Th17, 1 μM apremilast): 36.7 % of Control
IL-5 % of Control ([2]; Th17, 1 μM apremilast): 4.8 % of Control
IL-6 % of Control ([2]; Th17, 1 μM apremilast): 95.3 % of Control
IL-10 % of Control ([2]; Th17, 1 μM apremilast): 32.6 % of Control
IL-13 % of Control ([2]; Th17, 1 μM apremilast): 22.1 % of Control
IL-17A % of Control ([2]; Th17, 1 μM apremilast): 102.4 % of Control
IL-17F % of Control ([2]; Th17, 1 μM apremilast): 59.7 % of Control
IL-21 % of Control ([2]; Th17, 1 μM apremilast): 76.2 % of Control
IL-22 % of Control ([2]; Th17, 1 μM apremilast): 57.5 % of Control
IL-23 % of Control ([2]; Th17, 1 μM apremilast): 94.3 % of Control
TNF-α % of Control ([2]; Th17, 1 μM apremilast): 5.8 % of Control
effect on IL-17A cytokine expression ([2]; Th17, 1 μM apremilast): no effect
inhibition of IL-22 cytokine expression ([2]; Th17, 1 μM apremilast): 41%
reduction of GM-CSF cytokine expression ([2]; Th17, 1 μM apremilast): 66%
TNF-α levels ([2]; Th17, 1 μM apremilast, control 1436 pg/mL): 91 pg/mL
IL-17F levels ([2]; Th17, 1 μM apremilast, control 6524 pg/mL): 3643 pg/mL
effect on GM-CSF production ([2]; whole blood, Th0 and Th17): inhibited
effect on TNF-α production ([2]; whole blood, Th0 and Th17): inhibited
